In patent publication US4448763A, “Alteration of gallium biodistribution using indium complexes for enhanced early imaging” (priority 1980, dated 1984):

How the values were obtained:
[1] = versus gallium alone; cited from earlier work
[2] = Blood clearance of 67Ga (external blood loop), clearing agent given six hours after radiopharmaceutical; type: in vivo, male Sprague Dawley rats; design: % Increase in Blood Activity / Net Decrease in blood activity / % Decrease in Blood Activity: concentration or dose not given beside the values; details: for % Decrease in Blood Activity: 67Ga blood activity, clearing agent six hours after injection of radiopharmaceutical; for Net Decrease in blood activity / change in blood activity (in words) / % Increase in Blood Activity: clearing agent six hours after radiopharmaceutical; for % Increase in Blood Activity: rise following the initial drop
[3] = Imaging of 67Ga distribution in non-tumored rats, clearing agent six hours post dosing; type: in vivo, male Sprague Dawley rats
Text: Initial studies used non-tumored male Sprague Dawley rats weighing between 250 and 300 grams. […] In all imaging studies, the animals were anesthetized by intraperitoneal injection of urethane (1 gm/Kg), and the left external jugular vein cannulated as a dosing site. The animals were then positioned under the detection of the γ-camera (Union Carbide; CLEON 720 Large Field Gamma Camera coupled with a CLEON 110 Image Processor) and images were obtained periodically.

induced abscesses = details: rabbits bearing induced abscesses; cited from earlier work
[4] = cited from earlier work
[5] = Blood activity-time curve of carrier-free gallium-67 citrate, no clearing agent; type: in vivo, normal Sprague Dawley rat; details: single i.v.
Text: In this study, an external blood-loop technique (Int J of Appl Radiat Isot 29: 189-190, 1978) is used to monitor blood activity of the radiopharmaceutical as a function of time. Relative tissue concentrations are monitored by external imaging.
For blood clearance studies, male Sprague Dawley rats weighing 250-300 grams were used. The animals were anesthetized by peritoneal injection of an aqueous solution of urethan (1 gm/Kg). The right carotid artery and left jugular vein were exposed and an external blood loop (PE-50 tubing; volume.perspectiveto.0.14 ml) was inserted between the vessels. Blood was diverted from the artery, through the loop, and back to the animal via the vein (Int J of Appl Radiat Isot 29: 189-190, 1978). The right external jugular vein was then exposed and cannulated as an injection site. The animal was placed in a lead cradle and the blood loop inserted into the shielded well of a sodium iodide.thallium crystal. The animal received an injection of carrier-free gallium citrate (100-120 μCi) via the jugular cannula. Blood activity within the loop was continuously monitored as a function of time using a Packard Model 9012 Multi-channel Analyzer/Multi-scaler system (Packard Instrument Co., Downersville, Ill.). Six hours post injection, the animal received a second injection containing one of the clearing agents (.perspectiveto.7.2 mmole/Kg). […]

5123C hepatoma [6] = assay: Imaging of 67Ga distribution in tumored rats, clearing agent six hours after radiopharmaceutical
[7] = Blood clearance of 67Ga (external blood loop), clearing agent given two hours after radiopharmaceutical; type: in vivo, male Sprague Dawley rats
Experimental: Relative tissue concentrations are monitored by external imaging.
For blood clearance studies, male Sprague Dawley rats weighing 250-300 grams were used. The animals were anesthetized by peritoneal injection of an aqueous solution of urethan (1 gm/Kg). The right carotid artery and left jugular vein were exposed and an external blood loop (PE-50 tubing; volume.perspectiveto.0.14 ml) was inserted between the vessels. […] The right external jugular vein was then exposed and cannulated as an injection site. The animal was placed in a lead cradle and the blood loop inserted into the shielded well of a sodium iodide.thallium crystal. The animal received an injection of carrier-free gallium citrate (100-120 μCi) via the jugular cannula. […] Six hours post injection, the animal received a second injection containing one of the clearing agents (.perspectiveto.7.2 mmole/Kg). In subsequent experiments, clearing agents were administered two hours after or simultaneously with the radioactive dose.

[8] = relatively large doses; cited from earlier work
5123C hepatoma [9] = assay: Imaging of 67Ga distribution in tumored rats, clearing agent two hours after radiopharmaceutical; type: in vivo, male Buffalo rats
Experimental: FIGS. 3A-3C are scans (Union Carbide Cleon model 720 large field gamma camera) of Buffalo rats bearing implanted 5123C hepatomas.
At this point, the rat on the left received carrier gallium citrate (3.3 mg/Kg) and the rat on the right received indium citrate (2.1 mg/Kg).
Initial studies used non-tumored male Sprague Dawley rats weighing between 250 and 300 grams. Subsequent studies in tumored rats used male Buffalo rats bearing a 5123C hepatoma (The tumor line was initiated from donor animals donated by Drs. R. L. Hayes and B. Byrd of the Oak Ridge Associated Universities). In all imaging studies, the animals were anesthetized by intraperitoneal injection of urethane (1 gm/Kg), and the left external jugular vein cannulated as a dosing site. The animals were then positioned under the detection of the γ-camera (Union Carbide; CLEON 720 Large Field Gamma Camera coupled with a CLEON 110 Image Processor) and images were obtained periodically.
When the clearing agent was given two hours post radiopharmaceutical dosing, there were significant changes in gallium-67 distribution (FIG. 3). […] The results from use of indium citrate were somewhat more dramatic in that the activity is greatly diminished throughout the soft tissue regions. […] The most significant distributional change, however, is the obvious increase in tumor activity. […] To test this hypothesis, indium citrate was given with gallium-67 citrate as a single solution. […] Twenty minutes after the mixed dose is given, there is little activity outside the kidneys, bladder, tumor and bone. After two hours, there is essentially no activity in the animal other than in the above mentioned regions.

[10] = in vivo; cited from earlier work
[11] = cited from earlier work; remark: listed apart in the source
[12] = clearing agent two hours after radiopharmaceutical
[13] = clearing agent two hours post radiopharmaceutical, gallium citrate 3 mg/Kg, […] 2.1 mg/Kg

## CC(=O)N(O)CCCCCNC(=O)CCC(=O)N(O)CCCCCNC(=O)CCC(=O)N(O)CCCCCN [desferoxamine]
[1]
  renal elimination rate of gallium desferoxamine complex: rate greater than that observed for gallium alone

## CC(=O)[O-].CC(=O)[O-].CC(=O)[O-].[Tl+3] [Thallium, thallium triacetate]
[2]
  % Decrease in Blood Activity: 0%
  Net Decrease in blood activity: 0%
  change in blood activity (in words): no change in blood activity
  % Increase in Blood Activity: 0%
[3]
  redistribution of radioactivity (imaging): no significant redistribution of the radioactivity

## iron dextran
Induced abscesses
  clearing of gallium and abscess uptake: clearing of gallium with enhanced abscess uptake of gallium

## O=C([O-])CC(O)(CC(=O)[O-])C(=O)[O-].[67Ga+3] [gallium-67 citrate]
[4]; after intravenous administration
  time of maximum gallium activity in tumors: eighteen
[4]; given in very low doses
  plasma / blood and soft tissue protein binding: extensively bound
[4]; in vivo
  clearing from blood and soft tissue binding sites: slow process
[4]; prolonged retention of 67Ga in the body
  radiation dose: relatively high radiation dose
[5]
  t1/2 of very rapid component of blood curve: 12 s
[5]; after dosing
  time to completion of rapid distribution process: four to six

## CC(O)C(=O)[O][Al]([O]C(=O)C(C)O)[O]C(=O)C(C)O (centres unmarked) [Aluminum, aluminum lactate]
[2]
  % Decrease in Blood Activity: 9%
  Net Decrease in blood activity: 6%
  % Increase in Blood Activity: 3%
[3]
  redistribution of radioactivity (imaging): no significant redistribution of the radioactivity

## O=C([O-])CC(O)(CC(=O)[O-])C(=O)[O-].[Ga+3] [Gallium, gallium citrate]
[2]
  % Decrease in Blood Activity: 40%
  Net Decrease in blood activity: 25%
  change in blood activity (in words): decrease very rapidly
  % Increase in Blood Activity: 15%
[2]; listed as non-radioactive gallium
  % Decrease in Blood Activity: approximately 40%
[2]; eight hours post radiopharmaceutical dosing, gallium 3.3 mg/Kg at six hours
  blood activity reduction vs no clearing agent: approximately 25%
5123C hepatoma [6]; gallium citrate 3 mg/Kg
  redistribution of radioactivity outside tumor (imaging): less dramatic effect
5123C hepatoma [6]; gallium citrate 3 mg/Kg, compared with high dose
  loss of activity from the tumor (imaging): much less
5123C hepatoma [6]; gallium citrate 15 mg/Kg
  redistribution of radioactivity outside tumor (imaging): obvious redistributions of radioactivity
  tumor activity (imaging): tumor activity was observed to decrease
[7]; [12]
  blood activity cleared: 78%
  subsequent rise in blood activity (in words): characteristic rise in activity
[7]; two hours after radiopharmaceutical, gallium 3.3 mg/Kg
  net clearance of blood activity: 70%
[8]
  effect on blood and tumor activity: decrease blood activity without significantly reducing tumor activity
[3]
  redistribution of radioactivity (imaging): shifted the radioactivity out of the blood/soft tissue regions and into the kidneys and the bladder
5123C hepatoma [9]; [13]
  clearing of soft tissue / abdominal activity (imaging): some clearing in the upper abdomen and in regions of the lower abdomen
  tumor activity (imaging): little loss of activity from the tumor region
5123C hepatoma [9]; moderate doses of carrier gallium, […] two hours after radiopharmaceutical
  activity bound within tumors (imaging, summary): obviously affected

## O=C([O-])CC(O)(CC(=O)[O-])C(=O)[O-].[Sc+3] [Scandium citrate]
[10]
  hemolytic anemia: severe hemolytic anemia
[11]; gallium-67 and scandium citrates injected simultaneously
  tumor to blood and tumor to tissue ratios: extremely high tumor to blood and tumor to tissue ratios
[11]; in vivo
  effect upon gallium binding in tumors: little or no effect upon gallium binding in tumors
